Measured values reported in patent US20210179543A1, “CALPAIN-2 SELECTIVE INHIBITOR COMPOUNDS FOR TREATMENT OF GLAUCOMA” (Western University of Health Sciences, priority 2018, published 2021).

Tests used:
retinal ganglion cells = test: acute glaucoma model (increased IOP), beta-III tubulin staining of retinal wholemounts; format: in vivo; conditions: mouse, 200 μM, 1 μl intraocular 2 h after IOP elevation, 3 days after increased IOP
Description: Immunohistochemistry is shown with staining in the peripheral area of retinal wholemounts, with anti-beta-III tubulin, a marker for retinal ganglion cells, 3 days after increased IOP in a sham animal, an animal subjected to increased IOP and injected with vehicle (10% DMSO in PBS, 1 μl; IOP)) and an animal subjected to increased IOP and injected with NA115 (200 μM). Scale bar=100 microns.
Vehicle (10% DMSO in PBS, 1 μl) or NA115 (200 μM, 1 μl) was injected 2 h after IOP elevation. Retinal whole mounts were prepared 3 days after the surgery. One-way ANOVA followed by Bonferroni test. ****p<0.0001, **p<0.01. N=8 for Sham. N=7 for IOP, IOP+NA115.
The model of acute glaucoma previously reported in Wang et al. (2016) was used. In this model, intraocular pressure (IOP) was increased to 110 mm Hg for 1 h with the mouse under anesthesia. Two h later mice received an intraocular injection of various concentrations of a calpain-2 inhibitor and were returned to their home cages. They were sacrificed 4 h later for determination of calpain activity using immunohistochemistry to stain for the spectrin breakdown product (SBDP) selectively generated by calpain-mediated truncation of spectrin. Previous studies (Wang et al., 2016) have shown that, at this time-point calpain activity represents calpain-2 activity. […]

calpain-2 [1] = target: T1, calpain-2 (Homo sapiens, UniProt P17655); test: IC50 on calpain-1 and calpain-2 activities (Wang et al., 2014), selectivity; format: biochemical
T1 sequence (P17655 1-700): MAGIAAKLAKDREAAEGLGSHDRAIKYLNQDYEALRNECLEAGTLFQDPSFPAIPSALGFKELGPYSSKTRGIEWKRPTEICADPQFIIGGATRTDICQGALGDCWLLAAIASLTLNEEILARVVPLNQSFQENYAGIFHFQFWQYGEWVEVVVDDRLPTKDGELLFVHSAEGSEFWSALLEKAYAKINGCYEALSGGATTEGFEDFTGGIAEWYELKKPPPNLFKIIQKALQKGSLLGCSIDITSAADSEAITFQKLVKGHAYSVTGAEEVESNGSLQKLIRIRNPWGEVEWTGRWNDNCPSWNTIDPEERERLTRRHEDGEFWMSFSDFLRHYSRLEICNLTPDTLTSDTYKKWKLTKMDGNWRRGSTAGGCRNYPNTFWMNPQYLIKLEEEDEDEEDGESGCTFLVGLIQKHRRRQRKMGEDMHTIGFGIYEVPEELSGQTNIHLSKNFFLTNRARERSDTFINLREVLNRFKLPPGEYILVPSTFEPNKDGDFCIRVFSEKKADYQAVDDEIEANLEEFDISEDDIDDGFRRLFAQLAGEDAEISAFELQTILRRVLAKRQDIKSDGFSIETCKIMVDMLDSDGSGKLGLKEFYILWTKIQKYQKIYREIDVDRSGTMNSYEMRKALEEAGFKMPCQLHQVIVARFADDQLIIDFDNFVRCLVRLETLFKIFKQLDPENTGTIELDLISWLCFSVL
T1 sequence (P04632 1-268 partner): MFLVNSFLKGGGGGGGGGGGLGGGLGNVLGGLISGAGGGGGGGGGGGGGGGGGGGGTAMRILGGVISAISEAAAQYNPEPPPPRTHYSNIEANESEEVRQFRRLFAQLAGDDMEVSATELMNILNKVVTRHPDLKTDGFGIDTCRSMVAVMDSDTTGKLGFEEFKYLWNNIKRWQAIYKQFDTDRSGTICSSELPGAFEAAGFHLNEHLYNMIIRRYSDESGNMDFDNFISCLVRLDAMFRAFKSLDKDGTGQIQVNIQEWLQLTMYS
Description: These compounds can be calpain-2 selective inhibitors. […] IC50 values for NA115 on the activity of calpain-1 and calpain-2 activities were measured (Wang et al., 2014). […] The selectivity of NA117 was 24.1. [0016] Pharmaceutical compositions of the invention comprise NA115 and NA117, and a pharmaceutically acceptable excipient. Excipients used in pharmaceutical composition of the invention are safe and provide the appropriate delivery for the desired route of administration, of an effective amount of NA115 and NA117.

human calpain-1 = target: T2, human calpain-1 (Homo sapiens, UniProt P07384); test: in vitro calpain assay with succinic-Leu-Tyr-AMC, calpain-1; format: biochemical; conditions: human calpain-1, succinic-Leu-Tyr-AMC
T2 sequence (P07384 1-714): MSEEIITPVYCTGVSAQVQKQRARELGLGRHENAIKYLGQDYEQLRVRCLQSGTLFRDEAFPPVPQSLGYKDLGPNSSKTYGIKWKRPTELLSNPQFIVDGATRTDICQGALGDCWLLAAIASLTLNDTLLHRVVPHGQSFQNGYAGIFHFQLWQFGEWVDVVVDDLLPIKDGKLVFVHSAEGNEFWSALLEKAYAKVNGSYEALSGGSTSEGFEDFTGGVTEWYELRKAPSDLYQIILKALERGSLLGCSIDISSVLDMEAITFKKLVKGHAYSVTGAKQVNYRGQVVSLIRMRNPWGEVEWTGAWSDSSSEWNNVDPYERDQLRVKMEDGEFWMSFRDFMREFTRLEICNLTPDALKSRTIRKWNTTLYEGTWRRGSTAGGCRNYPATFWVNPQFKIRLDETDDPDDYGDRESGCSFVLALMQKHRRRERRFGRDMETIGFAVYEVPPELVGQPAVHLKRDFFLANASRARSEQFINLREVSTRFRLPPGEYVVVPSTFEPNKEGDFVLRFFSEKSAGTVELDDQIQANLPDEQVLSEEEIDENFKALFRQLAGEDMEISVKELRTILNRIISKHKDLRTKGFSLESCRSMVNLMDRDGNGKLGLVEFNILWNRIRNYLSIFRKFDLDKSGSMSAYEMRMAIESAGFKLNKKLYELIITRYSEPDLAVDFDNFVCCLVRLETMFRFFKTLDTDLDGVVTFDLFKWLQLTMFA
T2 sequence (P04632 1-268 partner): T1 sequence (P04632 1-268 partner)
Description: (§1) NA115A (Compound 15 (S above) was introduced at various concentrations into an in vitro mix comprising succinic-Leu-Tyr-AMC and human calpain-1 or calpain-2 (Sasaki et al, 1984), and the kinetics of the […] of fluorescence were determined for each of the calpains. The Kis of NA115, NA115A and NA115B for calpain-1 and calpain-2 are shown in Tables 1-2 below. The efficacy of NA115 against calpain-1 or calpain-2 appears to be only in NA115A.

[2] = plasma stability in mouse plasma; format: in vitro ADME; conditions: mouse plasma; solubilized in 2-Hydroxypropyl)-beta-cyclodextrin or captisol, depending on the solvent
Description: Stability of NA115 was evaluated with NA115 solubilized in 2-Hydroxypropyl)-beta-cyclodextrin or in captisol.
Moreover, 1 mM of the NA115 in beta-cyclodextrin was diluted 5 times in freshly prepared mouse plasma (200 μM NA115 in plasma). The mixture was incubated at 37 degree. At indicated time point, 1 μl of the mixture was added to 99 ul of calpain assay solution containing 5 mM Ca2+, 200 μM Suc-Leu-Tyr-AMC substrate and 100 nM calpain-2. Hydrolysis rate was monitored in the plate reader. As a control, 1 μl of plasma alone was subjected to calpain assay and its hydrolysis rate was set as 100% of calpain activity.

[3] = test system: calpain-2 activation in the retina; test: acute glaucoma model (increased IOP), SBDP immunohistochemistry in retina; format: in vivo; conditions: mouse
Description: Immunohistochemistry for SBDP (green) in sections from a sham animal (surgery only), animal subjected to increased IOP and injected intraocularly with vehicle (10% DMSO in PBS, 1 μl; IOP)), increased IOP and injected with NA115 (40 μM, 100 μM, and 200 μM). Blue staining represents cell nuclear staining with the retinal ganglion cells on the upper layer.
For each image, mean fluorescence intensity (MFI) is analyzed in the inner plexiform layer (layer between the 2 cell body layers in FIG. 1). Three frozen sections (20 μm-thick), cut through the optic disc of each eye, were collected and stained with SBDP antibody. In each section, three images were captured under 60× objective of a confocal microscope (LSM-880). For each image, MFI (mean fluorescence intensities) in the IPL layer were measured in ImageJ and averaged. N=2 animals/group.
Same experimental procedure as in FIGS. 1-4. NA117 was injectedintraocularly at a concentration of 200 μM). One-way ANOVA followed by Bonferroni test. *p<0.05, **p<0.01. Results are means±SEM of 2 animals. Scale bar=20 microns.
The model of acute glaucoma previously reported in Wang et al. (2016) was used. In this model, intraocular pressure (IOP) was increased to 110 mm Hg for 1 h with the mouse under anesthesia. Two h later mice received an intraocular injection of various concentrations of a calpain-2 inhibitor and were returned to their home cages. […]

calpain-2 [4] = target: T1, calpain-2; test: in vitro calpain assay with succinic-Leu-Tyr-AMC, calpain-2; format: biochemical; conditions: for IC50 / Ki: human calpain-2, succinic-Leu-Tyr-AMC
Description: as §1

[5] = epimerization in pig vitreous fluid, aliquots tested in the calpain-2 assay; format: in vitro ADME; conditions: 35° C.; for change of inhibitory effect in the calpain-2 assay after incubation: 2 μM, various periods of time
Description: NA115A or NA115B (2 μM) was incubated with pig vitreous fluid for various periods of time at 35° C. Aliquots were then tested in the calpain-2 assay. […] (FIGS. 9A-9D).

Row | IC50 (human calpain-1) | Ki (human calpain-1) | IC50 (calpain-2 [4]) | Ki (calpain-2 [4]) | change of inhibitory effect in the calpain-2 assay after incubation [5] | epimerization [5] | Structure (SMILES) | protection of retinal ganglion cells (anti-beta-III tubulin positive cells) from increased IOP-induced cell death (retinal ganglion cells) | selectivity for calpain-2, ratio of IC50 calpain-1/IC50 calpain-2 (calpain-2 [1]) | half-life at 200 μM [2] | inhibition of calpain-2 activation (SBDP staining) in the retina following increased IOP ([3]; intraocular injection 40 μM, 100 μM, 200 μM, 2 h after IOP elevation, sacrificed 4 h later) | Ratio KiCalpain-1/KiCalpain-2 (calpain-2 [4]) | inhibition of calpain activation (SBDP staining) following increased IOP ([3]; intraocular injection 200 μM)
1 | 331 nM | 189 nM | 196 nM | 124 nM | rapid decrease in the inhibitory effect | rapid epimerization | CC[C@H](NC(=O)[C@H](CC(C)C)NC(=O)CCc1ccccc1)C(=O)C(=O)NCc1cc(F)cc(OC)c1 [NA115A] | – | – | – | – | 1.5 | –
2 | > 10000 nM | > 10000 nM | > 10000 nM | > 10000 nM | increased inhibitory effect | rapid epimerization | CC[C@@H](NC(=O)[C@H](CC(C)C)NC(=O)CCc1ccccc1)C(=O)C(=O)NCc1cc(F)cc(OC)c1 [NA115B] | – | – | – | – | – | –
3 | – | – | – | – | – | – | CCC(NC(=O)[C@H](CC(C)C)NC(=O)CCc1ccccc1)C(=O)C(=O)NCc1cccc(OC)c1 (stereo partly drawn) [NA117, N-(3-methoxybenzyl)-3-((S)-4-methyl-2-(3-phenylpropanamido)pentanamido)-2-oxopentanamide] | – | 24.1 | – | – | – | also inhibits calpain activation following increased IOP

Row | Structure (SMILES) | IC50 (human calpain-1) | Ki (human calpain-1) | IC50 (calpain-2 [4]) | Ki (calpain-2 [4]) | change of inhibitory effect in the calpain-2 assay after incubation [5] | epimerization [5] | protection of retinal ganglion cells (anti-beta-III tubulin positive cells) from increased IOP-induced cell death (retinal ganglion cells) | selectivity for calpain-2, ratio of IC50 calpain-1/IC50 calpain-2 (calpain-2 [1]) | half-life at 200 μM [2] | inhibition of calpain-2 activation (SBDP staining) in the retina following increased IOP ([3]; intraocular injection 40 μM, 100 μM, 200 μM, 2 h after IOP elevation, sacrificed 4 h later) | Ratio KiCalpain-1/KiCalpain-2 (calpain-2 [4]) | inhibition of calpain activation (SBDP staining) following increased IOP ([3]; intraocular injection 200 μM)
4 | CCC(NC(=O)[C@H](CC(C)C)NC(=O)CCc1ccccc1)C(=O)C(=O)NCc1cc(F)cc(OC)c1 (stereo partly drawn) [NA115, N-(3-fluoro-5-methoxybenzyl)-3-((S)-4-methyl-2-(3-phenylpropanamido)-pentanamido)-2-oxopentanamide] | 750 nM | 470 nM | 170 nM | 103 nM | – | – | protects against retinal ganglion from increased ocular pressure-induced cell death | 31.7 | 9 to 15 h | dose-dependently inhibiting calpain-2 activation in the retina following increased IOP | 4.5 | –
